# Experimental data from patent US6720331B2, “1-substituted 1,2,3,4-tetrahydro-β-carboline and 3,4-dihydro-β-carboline and analogs as antitumor agents” (National Sun Yat-sen University, priority 2001, dated 2004).
# Assays:
# [1] = system: P-388 (murine leukemia); assay: Growth inhibition of tumor cell line P-388 (Table 1); type: cell-based; conditions: 3 day drug exposure; columns A/B = scaffold type
# [2] = system: KB-16 (human nasopharyngeal carcinoma); assay: Growth inhibition of tumor cell line KB-16 (Table 1); type: cell-based; conditions: 3 day drug exposure; columns A/B = scaffold type
# [3] = system: A-549 (human lung adenocarcinoma); assay: Growth inhibition of tumor cell line A-549 (Table 1); type: cell-based; conditions: 6 day drug exposure; columns A/B = scaffold type
# [4] = system: HT-29 (human colon adenocarcinoma); assay: Growth inhibition of tumor cell line HT-29 (Table 1); type: cell-based; conditions: 6 day drug exposure; columns A/B = scaffold type
# [5] = system: MCF-7 (breast adenocarcinoma); assay: alamarBlue anti-proliferation assay, Breast MCF-7; type: cell-based, human; conditions: for Percent Growth (Mean ± SEM, n = 2): 72 hour
# Experimental: (§1) The growth effects of compound 29 was tested on 8 different human tumour cell lines. Changes in cell proliferation based on the ability of viable cells to cause alamar Blue to change from its oxidized (non-fluorescent, blue) to a reduced (fluorescent, red) form were evaluated. With the results obtained from the alamarBlue reaction, cell proliferation was quantified and metabolic activity of viable cells examined. Test compound, (29), was tested for its effect on the proliferation of 8 different human tumor cell lines at five final assay concentrations from 100 to 0.01 μM through serial 10-fold dilutions, respectively.
# (§2) Compound 29 was dissolved in 100% ethanol and then diluted with Phosphate Buffer Saline (PBS, pH=7.4) to obtain initial working solutions of 10000, 1000, 100, 10 and 1 μM in 40% ethanol. In testing, 100-fold dilution was made in culture media to get final assay concentrations of 100, 10, 1, 0.1 and 0.01 μM in 0.4% of ethanol.
# (§3) Aliquots of 100 μl of cell suspension (about 2.5-5×10^3/well) were placed in 96well microtiter plates in an atmosphere of 5% CO2 at 37° C. After 24 hours, 100 μl of growth medium, 2 μL of test solution or vehicle (40% DMSO), was added respectively per well in duplicate for an additional 72 hour incubation. Thus, the final concentration of DMSO was 0.4%. The test compound was evaluated at concentrations of 100, 10, 1, 0.1 and 0.01 μM. At the end of the incubation, 20 μL of alamarBlue 75% reagent was added to each well for another 6-hour incubation before detection of cell viability by fluorescent intensity. Fluorescent intensity was measured using a Spectrafluor Plus plate reader with excitation at 530 nm and emission at 590 nm.
# (§4) PG(%)=100×(Mean Ftest−Mean Ftime0)/(Mean Fctrl−Mean Ftime0).
# (§5) PG(%)=100×(Mean Ftest−Mean Ftime0)/(Mean Ftime0−Mean Fblank)
# (§6) A decrease of 50% or more (≧50%) in fluorescent intensity relative to vehicle-treated control indicated significant cytostatic or cytotoxic activity, and a semi-quantitative IC50, TGI and LC50 were then determined by nonlinear regression using GraphPad Prism (GraphPad Software, U.S.A.).
# (§7) IC50 (50% Inhibition Concentration): Test Compound concentration at which the increase from time0 in the number or mass of treated cells was only 50% as much as the corresponding increase in the vehicle-control at the end of experiment.
# (§8) TGI (Total Growth Inhibition): Test compound concentration at which the number or mass of treated cells at the end of the experiment was equal to that at time0.
# (§9) LC50 (50% Lethal Concentration): Test compound concentration at which the number of mass of treated cells at the end of the experiment was half that at time0.
# [6] = system: T47D (breast ductal carcinoma); assay: alamarBlue anti-proliferation assay, Breast T47D; type: cell-based, human; conditions: 72 hour
# Experimental: as §1, §2, §3, §4, §5, §6, §7, §8, §9
# [7] = system: HT-29 (colon adenocarcinoma); assay: alamarBlue anti-proliferation assay, Colon HT-29; type: cell-based, human; conditions: for Percent Growth (Mean ± SEM, n = 2): 72 hour
# Experimental: as §1, §2, §3, §4, §5, §6, §7, §8, §9
# [8] = system: HL-60 (promyelocytic leukemia); assay: alamarBlue anti-proliferation assay, Leukemia HL-60; type: cell-based, human; conditions: for Percent Growth (Mean ± SEM, n = 2): 72 hour
# Experimental: as §1, §2, §3, §4, §5, §6, §7, §8, §9
# [9] = system: HepG2 (hepatoblastoma, liver); assay: alamarBlue anti-proliferation assay, Liver HepG2; type: cell-based, human; conditions: for Percent Growth (Mean ± SEM, n = 2): 72 hour
# Experimental: as §1, §2, §3, §4, §5, §6, §7, §8, §9
# [10] = system: PC-6 (lung carcinoma); assay: alamarBlue anti-proliferation assay, Lung PC-6; type: cell-based, human; conditions: for Percent Growth (Mean ± SEM, n = 2): 72 hour
# Experimental: as §1, §2, §3, §4, §5, §6, §7, §8, §9
# [11] = system: U-937 (histiocytic lymphoma); assay: alamarBlue anti-proliferation assay, Lymphoma U-937; type: cell-based, human; conditions: for Percent Growth (Mean ± SEM, n = 2): 72 hour
# Experimental: as §1, §2, §3, §4, §5, §6, §7, §8, §9
# [12] = system: PC-3 (prostate adenocarcinoma); assay: alamarBlue anti-proliferation assay, Prostate PC-3; type: cell-based, human; conditions: for Percent Growth (Mean ± SEM, n = 2): 72 hour
# Experimental: as §1, §2, §3, §4, §5, §6, §7, §8, §9
compound,measurement,setting,value
"CCn1c2ccccc2c2cc(C3=NCCc4c3[nH]c3ccccc43)ccc21 [Compound 29, 1-(9′-Ethyl-3′-carbazole)-3,4-dihydro-β-carboline]","IC50, concentration inhibiting 50% of the growth of P-388",[1],< 1 ng/mL
same,"IC50, concentration inhibiting 50% of the growth of KB-16",[2],<1 ng/mL
same,"IC50, concentration inhibiting 50% of the growth of A-549",[3],<1 ng/mL
same,"IC50, concentration inhibiting 50% of the growth of HT-29",[4],<1 ng/mL
same,"Percent Growth (Mean ± SEM, n = 2)","[5]; MCF-7, 0.01 μM",97 ± 1%
same,"Percent Growth (Mean ± SEM, n = 2)","[5]; MCF-7, 0.1 μM",94 ± 7%
same,"Percent Growth (Mean ± SEM, n = 2)","[5]; MCF-7, 1 μM",85 ± 8%
same,"Percent Growth (Mean ± SEM, n = 2)","[5]; MCF-7, 10 μM",−48 ± 11%
same,"Percent Growth (Mean ± SEM, n = 2)","[5]; MCF-7, 100 μM",−100 ± 0%
same,Estimated TGI (Total Growth Inhibition),"[5]; MCF-7, 72 hour, semi-quantitative",4.2 µM
same,IC50,"[5]; MCF-7, 72 hour, semi-quantitative, read-out: Estimated IC50 (50% Inhibition Concentration)",2 µM
same,LC50 (50% lethal concentration),"[5]; MCF-7, 72 hour, semi-quantitative, read-out: Estimated cIC50 (footnote c: LC50, 50% Lethal Concentration)",8.3 µM
same,"Percent Growth (Mean ± SEM, n = 2)",[6]; 0.01 μM,92 ± 2%
same,"Percent Growth (Mean ± SEM, n = 2)",[6]; 0.1 μM,88 ± 6%
same,"Percent Growth (Mean ± SEM, n = 2)",[6]; 1 μM,89 ± 3%
same,"Percent Growth (Mean ± SEM, n = 2)",[6]; 10 μM,25 ± 3%
same,"Percent Growth (Mean ± SEM, n = 2)",[6]; 100 μM,−100 ± 4%
same,Estimated TGI (Total Growth Inhibition),[6]; semi-quantitative,10.8 µM
same,IC50,"[6]; semi-quantitative, read-out: Estimated IC50 (50% Inhibition Concentration)",6 µM
same,LC50 (50% lethal concentration),"[6]; semi-quantitative, read-out: Estimated cIC50 (footnote c: LC50, 50% Lethal Concentration)",19.2 µM
same,"Percent Growth (Mean ± SEM, n = 2)","[7]; HT-29, 0.01 μM",97 ± 4%
same,"Percent Growth (Mean ± SEM, n = 2)","[7]; HT-29, 0.1 μM",101 ± 8%
same,"Percent Growth (Mean ± SEM, n = 2)","[7]; HT-29, 1 μM",85 ± 3%
same,"Percent Growth (Mean ± SEM, n = 2)","[7]; HT-29, 10 μM",−30 ± 15%
same,"Percent Growth (Mean ± SEM, n = 2)","[7]; HT-29, 100 μM",−94 ± 3%
same,Estimated TGI (Total Growth Inhibition),"[7]; HT-29, 72 hour, semi-quantitative",5.2 µM
same,IC50,"[7]; HT-29, 72 hour, semi-quantitative, read-out: Estimated IC50 (50% Inhibition Concentration)",2.3 µM
same,LC50 (50% lethal concentration),"[7]; HT-29, 72 hour, semi-quantitative, read-out: Estimated cIC50 (footnote c: LC50, 50% Lethal Concentration)",11.7 µM
same,"Percent Growth (Mean ± SEM, n = 2)","[8]; HL-60, 0.01 μM",99 ± 2%
same,"Percent Growth (Mean ± SEM, n = 2)","[8]; HL-60, 0.1 μM",90 ± 6%
same,"Percent Growth (Mean ± SEM, n = 2)","[8]; HL-60, 1 μM",73 ± 5%
same,"Percent Growth (Mean ± SEM, n = 2)","[8]; HL-60, 10 μM",9 ± 3%
same,"Percent Growth (Mean ± SEM, n = 2)","[8]; HL-60, 100 μM",−100 ± 2%
same,Estimated TGI (Total Growth Inhibition),"[8]; HL-60, 72 hour, semi-quantitative",8.3 µM
same,IC50,"[8]; HL-60, 72 hour, semi-quantitative, read-out: Estimated IC50 (50% Inhibition Concentration)",3.2 µM
same,LC50 (50% lethal concentration),"[8]; HL-60, 72 hour, semi-quantitative, read-out: Estimated cIC50 (footnote c: LC50, 50% Lethal Concentration)",22 µM
same,"Percent Growth (Mean ± SEM, n = 2)","[9]; HepG2, 0.01 μM",106 ± 2%
same,"Percent Growth (Mean ± SEM, n = 2)","[9]; HepG2, 0.1 μM",96 ± 11%
same,"Percent Growth (Mean ± SEM, n = 2)","[9]; HepG2, 1 μM",81 ± 4%
same,"Percent Growth (Mean ± SEM, n = 2)","[9]; HepG2, 10 μM",−27 ± 7%
same,"Percent Growth (Mean ± SEM, n = 2)","[9]; HepG2, 100 μM",−100 ± 3%
same,Estimated TGI (Total Growth Inhibition),"[9]; HepG2, 72 hour, semi-quantitative",5.2 µM
same,IC50,"[9]; HepG2, 72 hour, semi-quantitative, read-out: Estimated IC50 (50% Inhibition Concentration)",2.2 µM
same,LC50 (50% lethal concentration),"[9]; HepG2, 72 hour, semi-quantitative, read-out: Estimated cIC50 (footnote c: LC50, 50% Lethal Concentration)",12.5 µM
same,"Percent Growth (Mean ± SEM, n = 2)","[10]; PC-6, 0.01 μM",101 ± 1%
same,"Percent Growth (Mean ± SEM, n = 2)","[10]; PC-6, 0.1 μM",97 ± 5%
same,"Percent Growth (Mean ± SEM, n = 2)","[10]; PC-6, 1 μM",95 ± 5%
same,"Percent Growth (Mean ± SEM, n = 2)","[10]; PC-6, 10 μM",24 ± 2%
same,"Percent Growth (Mean ± SEM, n = 2)","[10]; PC-6, 100 μM",−79 ± 11%
same,Estimated TGI (Total Growth Inhibition),"[10]; PC-6, 72 hour, semi-quantitative",12.5 µM
same,IC50,"[10]; PC-6, 72 hour, semi-quantitative, read-out: Estimated IC50 (50% Inhibition Concentration)",5 µM
same,LC50 (50% lethal concentration),"[10]; PC-6, 72 hour, semi-quantitative, read-out: Estimated cIC50 (footnote c: LC50, 50% Lethal Concentration)",32.5 µM
same,"Percent Growth (Mean ± SEM, n = 2)","[11]; U-937, 0.01 μM",103 ± 3%
same,"Percent Growth (Mean ± SEM, n = 2)","[11]; U-937, 0.1 μM",97 ± 6%
same,"Percent Growth (Mean ± SEM, n = 2)","[11]; U-937, 1 μM",90 ± 2%
same,"Percent Growth (Mean ± SEM, n = 2)","[11]; U-937, 10 μM",−3 ± 4%
same,"Percent Growth (Mean ± SEM, n = 2)","[11]; U-937, 100 μM",−93 ± 0%
same,Estimated TGI (Total Growth Inhibition),"[11]; U-937, 72 hour, semi-quantitative",7.9 µM
same,IC50,"[11]; U-937, 72 hour, semi-quantitative, read-out: Estimated IC50 (50% Inhibition Concentration)",3.5 µM
same,LC50 (50% lethal concentration),"[11]; U-937, 72 hour, semi-quantitative, read-out: Estimated cIC50 (footnote c: LC50, 50% Lethal Concentration)",18.3 µM
same,"Percent Growth (Mean ± SEM, n = 2)","[12]; PC-3, 0.01 μM",100 ± 1%
same,"Percent Growth (Mean ± SEM, n = 2)","[12]; PC-3, 0.1 μM",94 ± 3%
same,"Percent Growth (Mean ± SEM, n = 2)","[12]; PC-3, 1 μM",82 ± 4%
same,"Percent Growth (Mean ± SEM, n = 2)","[12]; PC-3, 10 μM",−17 ± 9%
same,"Percent Growth (Mean ± SEM, n = 2)","[12]; PC-3, 100 μM",−93 ± 1%
same,Estimated TGI (Total Growth Inhibition),"[12]; PC-3, 72 hour, semi-quantitative",6.2 µM
same,IC50,"[12]; PC-3, 72 hour, semi-quantitative, read-out: Estimated IC50 (50% Inhibition Concentration)",2.5 µM
same,LC50 (50% lethal concentration),"[12]; PC-3, 72 hour, semi-quantitative, read-out: Estimated cIC50 (footnote c: LC50, 50% Lethal Concentration)",15 µM
